These results are taken from publication PMC10917278, “Structural insights into the modulation Of SOD1 aggregation By a fungal metabolite Phialomustin-B: Therapeutic potential in ALS” (PLOS ONE, 2024).

For this assay, the target named is T1, SOD1^WT (Homo sapiens, UniProt P00441).
T1 construct: The full-length constructs of SOD1-wild type (aa: 1–145); His-tag (cleaved yes); made in house; host or cells: E. coli BL21 DE3
Kind of assay: Thioflavin T (ThT) fluorescence aggregation assay, SOD1^WT. Type of assay: biochemical. Particulars: 37 °C, reduced conditions. The protocol: Following the co-crystal structure elucidation of SOD1 in complex with PB, we wanted to identify the effect of PB on the aggregation of SOD1^WT and its disease mutant, SOD1^A4V. A comprehensive analysis of the anti-aggregation propensity of PB was performed using a ThT-based fluorescence assay and analytical size-exclusion based chromatography (SEC) assay. We used Thioflavin-T, a β-sheet formation reporter, to assess the aggregation of SOD1. Time lag (tlag) is a kinetic parameter used to evaluate the lag phase of fibrillation. Fibril elongation was used to evaluate the rate of β sheet formation. […] Similar effects on lag time are also observed for SOD1^A4V. […] Moreover, ThT-based aggregation assays were also performed for the PB site-specific mutants, SOD1^A123F, SOD1^K9F, SOD1^L42R, and SOD1^G10P (S4a, S4c, S4e and S4g Fig). As expected based on the abovementioned MST results, the aggregation analysis is inconclusive as these mutants, which correspond to the ligand binding residues, cause a loss of protein-ligand interactions.
Fig 6 Aggregation studies of metallated and reduced SOD1^WT and SOD1^A4V on treatment with PB. ThT fluorescence was monitored during the co-incubation of metallated SOD1^WT (50 μM) (a) or SOD1^A4V (50 μM) (b) with PB at 1:30 molar ratio at 37 °C with continuous shaking, under reduced conditions. The values were normalized to the maximal ThT intensity elicited by SOD1^WT or SOD1^A4V and fitted to a Boltzmann sigmoidal equation. The control and PB-treated species were compared to analyse the effects of PB on the aggregation of SOD1^WT and SOD1^A4V. Error bars indicate the standard deviation. Analytical SEC of metallated SOD1^WT (50 μM) (c) and SOD1^A4V (50 μM) (d) with PB were analyzed under reducing conditions before and after 24 hrs and 48 hrs incubation at 37 °C. The first peak eluting at the volume was denoted as oligomerized SOD1^WT/SOD1^A4V (L). The second, third, and fourth peaks were calculated as trimer (T), dimer (D), and monomer (M) species of SOD1^WT/SOD1^A4V running at 14.5 ml, 15.7 ml, and 16.5 ml, respectively. […] The monomer (M), dimer (D), trimer (T), and large aggregate (L) species are shown as green, purple, red, and black dotted lines, respectively. All the experiments were performed for n = 3 biological replicates.
Fig 7 Aggregation studies of de-metallated and reduced SOD1^WT and SOD1^A4V on treatment with PB. ThT fluorescence was monitored during the co-incubation of de-metallated SOD1^WT (50 μM) (a) or SOD1^A4V (50 μM) (b) with PB at 1:30 molar ratio at 37 °C with continuous shaking, under reduced conditions. The values were normalized to the maximal ThT intensity elicited by SOD1^WT or SOD1^A4V and fitted to a Boltzmann sigmoidal equation. The control and PB-treated species were compared to analyse PB’s effects on the aggregation of SOD1^WT and SOD1^A4V. Analytical SEC of de-metallated SOD1^WT (50 μM) (a) and SOD1^A4V (50 μM) (b) with PB were analysed under reducing conditions before and after 24 hrs and 48 hrs incubation at 37 °C. The first peak eluting at the volume was denoted as oligomerized SOD1^WT (L) runs at 9.2 ml. The second, third, and fourth peaks were calculated as trimer (T), dimer (D), and monomer (M) species of SOD1^WT/SOD1^A4V running at 14.5 ml, 15.7 ml, and 16.5 ml, respectively. […] In the case of SOD1^A4V, PB eliminates the formation of large aggregates compared to the control (48hrs-EC, EC represents control with EDTA). […]

[1] abbreviates: De-metallated (5 mM EDTA) SOD1^WT 50 μM with PB at 1:30 molar ratio.
[2] abbreviates: Metallated SOD1^WT 50 μM with PB at 1:30 molar ratio.

T1 sequence (P00441 whole entry): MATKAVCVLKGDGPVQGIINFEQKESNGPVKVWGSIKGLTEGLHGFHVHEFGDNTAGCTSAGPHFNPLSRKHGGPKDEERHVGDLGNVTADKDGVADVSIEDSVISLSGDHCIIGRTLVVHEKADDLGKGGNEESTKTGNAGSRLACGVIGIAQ

Consider `CCCC[C@H](C)/C=C(C)/C=C/C(=O)O` [PB, (S, 2E, 4E)-4,6-dimethyldeca-2,4-dienoic acid], for which, under setting [1], the kapp turned out to be 0.374 h⁻¹, the t50 stood at 1.851 h and the tlag amounted to 1.84 h. Besides, under setting [2], the kapp stood at 0.233 h⁻¹ and the t50 is 2.976 h.
